Common to all, as to format: cell-based, mouse
For assay [1], the system named is LPS-induced BV-2 microglia. Description: Inhibition of nitric oxide (NO) production, Griess method. The note with it: 1 μg/mL LPS + 10 μM compound, 24 h, FIG. 2. How it is done: The mouse microglia (BV-2) were cultured in the DMEM culture medium containing 10% of fetal bovine serum (FBS) and 1% of antibiotics (100 U/mL of […] and penicillin) at 37° C. in the incubator of 5% CO2.
NO is an important inflammatory mediator. Excessive production of NO is common in neurons and glial cells of brains with ND^[8]. Griess reagent was configured to evaluate the influence on NO production in order to measure the anti-inflammatory effects of sarcodonin A and its derivative in LPS-induced BV-2 microglia. Before adding the detection reagent, BV-2 cells (2×10^5/mL) were incubated in the 96-well plate and cultured at 37° C. for 24 h. The experimental groups were divided into a control group (DMSO), an LPS-treated group ([…] of LPS) and a compound-treated group (1 μg/mL of LPS+10 μM compound), and then incubation was performed for 24 h. The nitrite concentration in the culture medium was measured by a commercial analysis kit. The main principle was based on the griess method. Supernatant of the BV-2 cells (50 μL) reacted with the griess reagent (50 μL of griess regent I and 50 μL of griess regent II). The absorbance was measured at 540 nm on the Bio-Tek micropore plate reader, and the nitrite concentration was calculated by a nitrite standard curve with sodium nitrite as the standard.
The inhibition rate %=(ALPS−Acompound)/(ALPS−Ablank)×100;
In general terms: Griess reagent forms a coloured azo dye with nitrite.

The test system of assay [2] is LPS-induced BV-2 cells. The assay can be described thus: mRNA levels of M1/M2 biomarkers by qRT-PCR. The note with it: FIG. 3; for mRNA expression of COX-2 induced by the LPS / mRNA level of IL-10: 10 μM / tested concentration; for mRNA expression of IL-6 induced by the LPS / mRNA level of ARG-1: 10 μM; for mRNA expression of TNF-α induced by the LPS: 1 at 10 μM; for mRNA level of IL-10 / mRNA level of ARG-1: M2 marker. How it is done: In order to detect the regulation of M1/M2 phenotype switch by 1 and 6, the effects on the mRNA expression of representative M1 and M2 biomarkers in the LPS-stimulated BV-2 cells were evaluated. The cells were incubated into a 6 cm of culture dish (5 mL/dish) at a density of 2×10^5 cfu, and cultured in a constant-temperature incubator of 5% CO2 at 37° C. for 12 h. According to the manufacturer's instructions, total RNA was extracted by Trizol, and concentration and purity thereof were measured by a UV-Vis spectrophotometer. 2 μg of isolated RNA was reversely transcribed into cDNA by Prime Script RTMaster Mix kit. By using a Syr Green quantitative RT-PCR kit, an mRNA level was evaluated by qRT-PCR response. β-actin was used as an internal standard. The primer sequences are as follows (Table 1).
(In qPCR the cycle at which signal appears reflects the starting amount.)

Assay [3] concerns LPS-induced BV-2 cells. Description: M1/M2 marker cytokine secretion by ELISA. The note with it: for production of IL-1β / production of IL-6 / production of IL-10 / production of TNF-α: 3 and 10 μM, 1 h pretreatment then LPS 24 h, effect enhanced as concentration increases, FIG. 4. How it is done: To further evaluate the role of 1 and 6 in M1 polarization of the LPS-induced microglia, the release of pro-inflammatory M1 cytokines (including TNF-α, IL-6 and IL-1β) and anti-inflammatory M2 cytokines (including IL-10) in the LPS-induced BV-2 cells was detected by ELISA. The BV-2 cells were incubated in a 6-well plate (2 mL/well) at a density of 2×10^5 cfu, cultured in a constant-temperature incubator of 5% CO2 at 37° C. for 24 h, then pretreated with different concentrations of compounds 1 and 6 (3 μM, 10 μM), LPS (1 μg/mL) and DMSO for 1 h, and then induced by the LPS for 24 h. Supernatant of the cell culture medium was collected, and the concentrations of TNF-α, IL-6, IL-10 and IL-1β were measured according to manufacturer's instructions.

For assay [4], the system named is LPS-induced BV-2 cells. Description: M1/M2 marker protein expression by Western blotting. The note with it: FIG. 5; for M1/M2 polarization of the LPS-induced BV-2 cells: conclusion from marker expression. How it is done:
The protein expression of iNOS, COX-2(M1 marker) and ARG-1(M2 marker) was analyzed by Western blotting. The BV-2 cells (5×10^5 cfu) cultured in a 6 cm dish were pretreated with 1 or 6 ([…]) respectively for 1 h, and then 1 μg/ml LPS was added for 24 h. The cells were lysed in an ice-cold RIPA lysis buffer with a mixed solution of 10 mM of PMSF and 1% of protein inhibitors. The cytosol lysate was centrifuged at 4° C. at 12000 rpm for 30 minutes. Total protein was isolated from the lysate and their concentration was determined by BCA.
A sample was separated by 8%-12% SDS-PAGE and transferred to a […] PVDF membrane. The membrane was blocked with 5% BSA in TBST (20 mM of Tris-HCl, 150 mM of NaCl, 0.1% of Tween-20) for 1 h at room temperature, and then incubated with appropriate primary antibodies: anti-β-tubulin (1:1000), anti-GAPDH (1:1000), anti-iNOS (1:500), anti-COX-2 (1:1000) and anti-ARG-1 (1:500) at 4° C. overnight. The membrane was washed in the TBST for 3×5 minutes, and then incubated with the secondary antibody bound to appropriate peroxidase (HRP) and left at room temperature for 1 h. The blot was washed in the TBST for 3×5 minutes and exposed to an ECL chemiluminescence reagent. At last, the signal was detected by the Bio-Rad ChemiDoc XRS+ system.
For orientation: Immunoblotting shows a protein as a band on a membrane.

Assay [5] concerns LPS-induced BV-2 microglia. The assay can be described thus: MAPK phosphorylation (ERK1/2, JNK, p38 MAPK) by Western blotting. Conditions: Western blot, 1 h pretreatment then LPS 1 μg/mL 30 min; FIG. 6. How it is done:
Previous studies have shown that the over-activation of MAPK signaling cascade is related to neuroinflammatory reaction^[9-10]. In order to clarify the action mode of 6 in reversing the M1 polarization of the microglia, the effects of 6 on phosphorylation levels of ERK1/2, […] and p38 MAPK in the LPS-induced BV-2 microglia are further studied. BV-2 cells (5×10^5 cfu) cultured in a 6 cm dish are pretreated with compound 1 or 6 ([…]) respectively for 1 h, and then added with the LPS (1 μg/mL) for 30 min. The similar method is used by Western blotting, and the primary antibodies are: […] (1:1000), anti-GAPDH (1:1000), anti-ERK1/2 (1:1000), anti-phosphorylated ERK1/2 (1:1000), anti-p38 MAPK (1:2000), anti-phosphorylated p38 MAPK (1:1000), anti-JNK (1:2000) and anti-phosphorylated JNK (1:1000).

For assay [6], the system named is LPS-induced BV-2 cells. Description: Nuclear translocation of NF-κB subunit p65 by Western blotting. The note with it: Western blot of nuclear and cytoplasmic parts. From the text: The nuclear translocation of NF-κB subunit p65 as an activation index of NF-κB is examined. The cells were collected in the same way for Western blotting. A extraction kit is configured to isolate and extract nuclear and cytoplasmic parts according to the instructions. The primary antibodies are anti-NF-κB p65 (1:1000), anti-Lamin B1 (1:1000) and anti-GAPDH (1:1000).

The mark [7] stands for this setting: Western blot, 1 h pretreatment then 1 μg/ml LPS 24 h.

“Also recorded” adds a separate entry of the source.

As for `CC(CO)C1=C2C3=CC=C(C=O)C[C@H](O)[C@]3(C)CC[C@@]2(C)CC1` (some centres unmarked) [Compound 1, sarcodonin A], the “inhibition of NO production (in words)” value in assay [1] is on record as “can inhibit”. In addition, in assay [2] (M1 marker), the “mRNA expression of COX-2 induced by the LPS” value is reported as “does not affect”, the “mRNA expression of IL-6 induced by the LPS” value is reported as “inhibits” and the “mRNA expression of TNF-α induced by the LPS” value is listed as “inhibits”. For the same compound, in assay [2], the “mRNA level of IL-10” value was “does not affect” and the “mRNA level of ARG-1” value is “enhance”. For the same compound, in assay [3], the “production of IL-1β” value is given as “inhibitory effect”, the “production of IL-6” value is “inhibitory effect”, the “production of IL-10” value is given as “promoting effect” and the “production of TNF-α” value was “inhibitory effect”. For the same compound, in assay [4] (setting [7]), the “protein expression of ARG-1” value is “promotes” and the “protein expression of LPS-induced iNOS” value is given as “inhibits”. In addition, the “M1/M2 polarization of the LPS-induced BV-2 cells” value in assay [4] was “inhibit the M1 polarization and enhance M2 polarization”.

For the compound `CC(COC(=O)c1ccccc1Cl)C1=C2C3=CC=C(C=O)CC(O)C3(C)CCC2(C)CC1` (centres unmarked) [Compound 3], in assay [1], the “inhibition of NO production (in words)” value was “higher inhibitory activity”.

On to `CC(COC(=O)c1ccccc1Br)C1=C2C3=CC=C(C=O)CC(O)C3(C)CCC2(C)CC1` (centres unmarked) [Compound 4], for which the “inhibition of NO production (in words)” value in assay [1] is given as “higher inhibitory activity; also recorded: highest inhibitory activity in o-halogen-substituted 19-O-benzoyl derivatives”.

On to `CC(COC(=O)c1ccc(Br)cc1)C1=C2C3=CC=C(C=O)CC(O)C3(C)CCC2(C)CC1` (centres unmarked) [Compound 6], for which the “inhibition of NO production (in words)” value in assay [1] is “higher inhibitory activity; also recorded: strongest activity”. Also, the “inhibitory activity on NO production (inhibition rate)” value in assay [1] (compared with the LPS control group) is reported as 55%. Also, in assay [2] (M1 marker), the “mRNA expression of COX-2 induced by the LPS” value was “inhibits”, the “mRNA expression of IL-6 induced by the LPS” value was “inhibits”, the “mRNA expression of TNF-α induced by the LPS” value is reported as “inhibits” and the “mRNA expression of IL-1β induced by the LPS” value was “inhibits”. For the same compound, the “mRNA expression of iNOS induced by the LPS” value in assay [2] (M1 marker) was “inhibits”. Also, in assay [2], the “mRNA level of IL-10” value is given as “promotes” and the “mRNA level of ARG-1” value is given as “promotes”. Also, in assay [3], the “production of IL-1β” value is on record as “inhibitory effect”, the “production of IL-6” value is “inhibitory effect”, the “production of IL-10” value is on record as “promoting effect” and the “production of TNF-α” value is on record as “inhibitory effect”. Besides, the “comparison of effect on cytokine production at the same concentration” value in assay [3] (IL-6, IL-1β, TNF-α, IL-10, FIG. 4) is reported as “more effective than 1”. Besides, in assay [4] (setting [7]), the “protein expression of ARG-1” value is “more obvious promoting effect”, the “protein expression of COX-2” value is given as “more obvious inhibitory effect” and the “protein expression of LPS-induced iNOS” value was “more obvious inhibitory effect”. The “M1/M2 polarization of the LPS-induced BV-2 cells” value in assay [4] is “inhibit the M1 polarization and enhance M2 polarization”. For the same compound, in assay [5], the “activation (phosphorylation) of ERK1/2 induced by the LPS” value is “significantly inhibits”, the “activation (phosphorylation) of INK induced by the LPS” value is “significantly inhibits” and the “phosphorylation of p38 MAPK” value is “little effect”. Also, the “LPS-stimulated nuclear translocation of NF-κB p65” value in assay [6] is “significantly inhibits”.

As to `CC(=O)OCC(C)C1=C2C3=CC=C(C=O)CC(OC(C)=O)C3(C)CCC2(C)CC1` (centres unmarked) [Compound 7], the “inhibition of NO production (in words)” value in assay [1] was “strong inhibitory effect similar to that of 6”.

These data come from patent US20230227392A1, “A APPLICATION OF CYATHANE DITERPENOIDS IN PREPARATION OF DRUGS FOR TREATING NEUROINFLAMMATION” (Northwest A&F University, priority 2022, published 2023).
